# Values joined by “and” are separate entries in the source; they are usually repeats but may differ in a detail not shown here. Equal entries are not always repeated.
# Experiments:
# [1] = Serum protein binding (ultrafiltration), human serum; format: in vitro ADME; conditions: room temperature, ultrafiltration 30,000 NMWL
# Method: (§1) Fresh rat serum, and commercial male human serum (type AB donors, Sigma Chemical Co.) were used to evaluate in vitro binding of ^99mTc˜EC20 to serum proteins. One minute after ^99mTc-EC20 was mixed with 1 mL of serum at room temperature, 0.3 mL of the serum solution was transferred to a clean Amicon Centrifree® ultrafiltration device (30,000 NMWL) in triplicate. Within one minute of loading the centrifuge with the serum solution, the device was spun at 1000×g for 20 minutes at 20° C. 50 μL samples of the original solution, and of the filtrate from each device, was transferred to a clean tube and counted in an automatic gamma counter. A control solution of ^99mTc˜EC20 mixed with 1 mL of normal saline was ultrafiltered in an identical fashion. The percentage of free ^99mTc was calculated for each of the three samples.
# [2] = molecular target: T1, folate receptor (FR) on KB cells (Homo sapiens, UniProt P15328); assay: Concentration-dependent cell uptake (Scatchard analysis); format: binding; conditions: 2 hours at 37° C.
# T1 construct: FR-positive KB cells were gently trypsinized; endogenous in cells; host or cells: KB cells
# T1 sequence (P15328 25-234): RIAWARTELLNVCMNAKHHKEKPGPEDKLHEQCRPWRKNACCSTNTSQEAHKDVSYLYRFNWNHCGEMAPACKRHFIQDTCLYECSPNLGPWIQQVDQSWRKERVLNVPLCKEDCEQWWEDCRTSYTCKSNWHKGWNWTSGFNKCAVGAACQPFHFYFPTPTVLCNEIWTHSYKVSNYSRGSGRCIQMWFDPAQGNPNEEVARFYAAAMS
# Method: KB cells were seeded in 12-well Falcon plates and allowed to form sub-confluent monolayers overnight. Following one rinse with 1 mL of fresh FERPMI/HIFCS, each well received 1 mL of FFRPMI/HIFCS containing increasing concentrations of ^99mTc-EC20. Cells were incubated for 2 hours at 37° C. and then rinsed four times with 1 mL of ice-cold PBS, pH 7.4. The monolayers were dissolved in 0.5 mL of PBS, pH 7.4 containing 1% sodium dodecyl sulfate for 15 min at room temperature and then counted for radioactivity using a Packard gamma counter. Protein content was determined as described above, and final tabulated values were expressed in terms of molecules of EC20 per cell.
# The particular KB cells used were determined to bind a maximum of four million molecules of the folate radiopharmaceutical per cell.
# This HPLC-purified radiolabeled material (Peak B material) was collected and then added to cultured KB cells.
# [3] = Serum protein binding (ultrafiltration), rat serum; format: in vitro ADME; conditions: room temperature, ultrafiltration 30,000 NMWL
# Method: as §1
# [4] = Urinary excretion and metabolism (HPLC speciation of urine); format: in vivo, Balb/c mice
# Method: The urinary HPLC speciation profile of ^99mTc-EC20 was obtained using Balb/c mice. Mice (˜20 g each) were injected with 1 mCi (6.7 nmol) of ^99mTc-EC20 via a lateral tail vein. Following a 1, 4, or 6 hour time period, groups of two mice were euthanized by CO2 asphyxiation and urine was collected. After filtration through a GV13 Millex filter, the radiochemical speciation was assessed using an HPLC system equipped with a Nova-Pak C18 3.9×150 mm column and a radiochemical detector. The system was isocratically eluted with 20% methanol containing 0.1% TFA at a flow rate of 1 mL/minute.
# [5] = Radiochemical stability by HPLC; format: physicochemical; conditions: room temperature, protected from light, at least 24 hours
# Method: The radiochemical stability of the radioactive drug substance was determined by HPLC after storing at room temperature protected from light for up to 24 hours. Samples of the ^99mTc-EC20 solution (20 μL) were analyzed using an HPLC system consisting of a Waters 600E Multisolvent Delivery System and 490 UV detector, a Bioscan EC-3200 radiodetector, Laura v1.5 radiochromatogram software, and a Waters Nova-Pak C18 (3.9×150 mm) column. Injected samples were eluted isocratically using an aqueous mobile phase containing 20% methanol and 0.1% trifluoroacetic acid at a flow rate of 1 mL/min. The HPLC analysis was monitored with both the UV detector (280 nm) and the gamma radiodetector.
smiles,measurement,setting,value
[NH-][C@@H](CNC(=O)CC[C@@H](NC(=O)c1ccc(NCc2cnc3nc(N)[nH]c(=O)c3n2)cc1)C(=O)O)C(=O)[N-][C@@H](CC(=O)O)C(=O)[N-][C@@H](C[S-])C(=O)O.[O]=[Tc+4] [^99mTc-EC20],associated with the >30 kDa serum protein fraction,[1],72%
same,maximum molecules bound per cell,[2],four million
same,Kd,[2]; read-out: KD of binding (Scatchard analysis),3.2 nM
same,associated with the >30 kDa serum protein fraction,[3],69%
same,form excreted into the urine,"[4]; Balb/c mice, i.v.",predominately excreted into the urine in an unmodified form
same,proportion of parent drug among radioactive species recovered in urine,[4]; throughout four hours post-injection,approximately 90%
same,"Area Percent, Sum C and D (intact 99mTc-EC20)","[4]; urine samples, 1 hr, two mice",89.2 Area Percent and 91.1 Area Percent
same,"Area Percent, peak A (pertechnetate)","[4]; urine samples, 1 hr, two mice",8.3 Area Percent and 6.3 Area Percent
same,"Area Percent, peak B (unknown)","[4]; urine samples, 1 hr, two mice",2.5 Area Percent and 2.6 Area Percent
same,"Area Percent, peak C (isomer 1)","[4]; urine samples, 1 hr, two mice",20.4 Area Percent and 18.1 Area Percent
same,"Area Percent, peak D (isomer 2)","[4]; urine samples, 1 hr, two mice",68.8 Area Percent and 73 Area Percent
same,"Area Percent, Sum C and D (intact 99mTc-EC20)","[4]; urine samples, 4 hr, two mice",85.2 Area Percent and 89.8 Area Percent
same,"Area Percent, peak A (pertechnetate)","[4]; urine samples, 4 hr, two mice",9.4 Area Percent and 10.2 Area Percent
same,"Area Percent, peak C (isomer 1)","[4]; urine samples, 4 hr, two mice",7.3 Area Percent and 11.1 Area Percent
same,"Area Percent, peak D (isomer 2)","[4]; urine samples, 4 hr, two mice",77.9 Area Percent and 78.7 Area Percent
same,radiochemical purity on storage,[5],greater than 90%

# — US7862798B2, “Vitamin-targeted imaging agents” (Endocyte, Inc., priority 2002, dated 2011)
